Measurements: patent publication US6291676A, “Water-soluble derivatives of camptothecin/homocamptothecin” (priority 2000, dated 2001)
Like-named read-outs stand apart in the source and are kept apart here.

Key:
topoisomerase I [1] = test: Topoisomerase I mediated DNA cleavage (cleavable complex induction); format: biochemical; settings: for dose response with respect to inducing DNA fragmentation: FIG. 10; for distribution of cleavage sites vs camptothecin or SN-38 / induction of cleavable complex formation: topoisomerase I; for induction of cleavable complex formation: 3'-32P-labeled oligonucleotide
Description: (§1) Evaluation of the Relative Abilities of the Novel Polyamine Camptothecin Analogs to Induce Topoisomerase I Mediated DNA Single Strand Breaks. We have evaluated the abilities of the novel compounds of the present invention to inhibit the topoisomerase I enzyme. In these experiments the oligonucleotide was labeled at the 3'-end of the upper (scissile) strand with 32P-α-cordycepin and terminal transferase (Pommier, Y., Kohlhagen, G., Kohn, F., Leteurtre, F., Wani, M. C., and Wall, M. E. Proc. Natl. Acad. Sci. U.S.A. 92:8861-8865, 1995). Topoisomerase I (Top1) cleavage generates a 23mer that can be easily detected by electrophoresis and quantitated by Phosphorimager analysis. Tanizawa et al. (Tanizawa, A., Kohn, K. W., Kohlhagen, G., Leteurtre, F., and Pommier, Y. Biochemistry […]:7200-7206, 1995) have previously shown that camptothecin derivatives differ in the manner in which they stabilize the top1 cleavable complexes that they induce. The novel polyamine camptothecins of the present invention were compared in this assay. 0.35M NaCl was added to force top 1-mediated DNA religation and DNA cleavage was measured at various times after NaCl addition. FIG. 9 is a typical phosphoimager picture showing the timecourse of the effects of various camptothecins on the relaxation of DNA in the presence of topoisomerase I. Topoisomerase I-mediated cleavage generates DNA fragments that can be readily detected by electrophoresis and quantitated by phosphorimager analysis.
FIG. 10 is a phosphoimager picture showing the dose response of various camptothecin compounds described in the present invention on the relaxation of DNA in the presence of topoisomerase I. Topoisomerase I-mediated cleavage generates DNA fragments that can be readily detected by electrophoresis and quantitated by phosphorimager analysis as shown.
FIG. 11 contains a phosphoimager picture (bottom figure) showing the dose response effects of several of the novel polyamine camptothecins of the current invention on the relaxation of DNA in the presence of topoisomerase I. Topoisomerase I-mediated cleavage generates DNA fragments that can be readily detected by electrophoresis and quantitated by phosphorimager analysis (top figure).

topoisomerase I [2] = test: Reversal of topoisomerase I cleavable complexes after NaCl addition; format: biochemical; settings: after 0.35M NaCl; for stability of cleavable complexes: relative to camptothecin and SN-38
Description: as §1

[3] = Fluorescence anisotropy titration: association with electroneutral DMPC vesicles; format: physicochemical; settings: PBS buffer, pH 7.4, physiological temperature, DMPC
Protocol: (§2) Vesicle Preparation. Small unilamellar vesicle (SUV) suspensions were prepared the day of an experiment by the method of Burke et al. (T. G. Burke, A. K. Mishra, M. C. Wani, and M. E. Wall, Lipid Bilayer Partitioning and Stability of Camptothecin Drugs, Biochem., 32(20), 5352 (1993)). Briefly, stock lipid suspensions containing 200 mg/mL lipid in phosphate buffered saline (PBS, pH 7.4) were prepared by Vortex mixing for 5-10 min above the TM of the lipid. The lipid dispersions were then sonicated using a bath-type sonicator (Laboratory Supplies Co., Hicksville, N.Y.) for 3-4 h until they became optically clear. […] Each type of vesicle suspension was annealed for 30 min at 37° C. and then used in an experiment.
(§3) Fluorescence Instrumentation. Steady-state fluorescence measurements were obtained on a SLM Model 9850 spectrofluorometer with a thermostated cuvette compartment. This instrument was interfaced with an IBM PS/2 model 55 SX computer. Excitation and emission spectra were recorded with an excitation resolution of 8 nm and an emission resolution of 4 nm. In all cases spectra were corrected for background fluorescence and scatter from unlabeled lipids or from solvents by subtraction of the spectrum of a blank. Steady-state fluorescence intensity measurements were made in the absence of polarizers. Steady-state anisotropy (a) measurements were determined with the instrument in the "T-format" for simultaneous measurement of two polarized intensities. […] The anisotropy was calculated from a =(IVV -GIVH)/(IVV +2GIVH), where G=IHV /IHH and the subscripts refer to vertical and horizontal orientations of the excitation and emission polarizers, respectively.
(§4) Anisotropy measurements for camptothecins were conducted using exciting light in the range of 370 nm to 400 nm and long pass filters on each emission channel in order to isolate the drug's fluorescence signal from background scatter and/or residual fluorescence. […] The combination of exciting light and emission filters allowed us to adequately separate fluorescence from background signal. […]

[4] = Fluorescence anisotropy titration: association with negatively-charged DMPG vesicles; format: physicochemical; settings: PBS buffer, pH 7.4, physiological temperature, DMPG
Protocol: as §2, §3, §4

[5] = Excited-state lifetime of camptothecin; format: physicochemical; settings: 37° C
Protocol: We have examined the excited-state lifetime values of camptothecin in PBS, glycerol, and methanol at 37° C. The lifetime values were determined to be 4.7 ns, 3.8 ns, and 3.5 ns, respectively.

[6] = cited from earlier work
[7] = aqueous medium; cited from earlier work

## CC[C@@]1(O)C(=O)OCc2c1cc1n(c2=O)Cc2c-1nc1ccccc1c2CCN=[N+]=[N-] [7-(2-azidoethyl)]
Topoisomerase I [1]
  dose response with respect to inducing DNA fragmentation: particularly good dose response

## CC[C@@]1(O)C(=O)OCc2c1cc1n(c2=O)Cc2c-1nc1ccccc1c2CCCNC(=N)N [compound #8]
Topoisomerase I [1]
  distribution of cleavage sites vs camptothecin or SN-38: comparable to those generated by camptothecin or 7-ethyl-10-hydroxycamptothecin (SN-38)
  induction of cleavable complex formation: good inducers of cleavable complex formation
Topoisomerase I [2]
  stability of cleavable complexes: intermediate stabilities between camptothecin and SN-38

## CC[C@@]1(O)C(=O)OCc2c1cc1n(c2=O)Cc2c-1nc1ccccc1c2CCNC(=N)N [compound #9]
Topoisomerase I [1]
  distribution of cleavage sites vs camptothecin or SN-38: comparable to those generated by camptothecin or 7-ethyl-10-hydroxycamptothecin (SN-38)
  induction of cleavable complex formation: good inducers of cleavable complex formation
Topoisomerase I [2]
  stability of cleavable complexes: intermediate stabilities between camptothecin and SN-38

## CC[C@@]1(O)C(=O)OCc2c1cc1n(c2=O)Cc2cc3ccccc3nc2-1 [Camptothecin]
[3]
  Overall association constant KDMPC: 100 M⁻¹
[4]
  Overall association constant KDMPG: 100 M⁻¹
[5]; DMPC bilayers
  average excited-state lifetime, membrane-bound drug: 3.7 ns
[5]; PBS
  excited-state lifetime: 4.7 ns
[5]; glycerol
  excited-state lifetime: 3.8 ns
[5]; methanol
  excited-state lifetime: 3.5 ns
[6]; vesicles of either DMPC or DMPG
  enhancement in the anisotropy value upon binding to vesicles: 21 fold
[7]
  half-life of lactone ring hydrolysis: approximately 20 min

## CCc1c2c(nc3ccc(O)cc13)-c1cc3c(c(=O)n1C2)COC(=O)[C@]3(O)CC [SN-38, 7-ethyl-10-hydroxycamptothecin, reference compound]
Topoisomerase I [2]; compared with camptothecin
  reversal of cleavable complexes: reversed more slowly than those induced by camptothecin

## CC[C@@]1(O)C(=O)OCc2c1cc1n(c2=O)Cc2cc3c(CN(C)C)c(O)ccc3nc2-1 [topotecan]
[6]; PBS
  steady-state fluorescence anisotropy (a): 0.008
[6]; glycerol
  increase of anisotropy value vs PBS: 40 fold
[6]; octanol
  increase of anisotropy value vs PBS: 9 fold

## CC[C@@]1(O)C(=O)OCc2c1cc1n(c2=O)Cc2c-1nc1ccccc1c2CCCCCN=[N+]=[N-] [7-(5-azidopentyl)]
Topoisomerase I [1]
  dose response with respect to inducing DNA fragmentation: particularly good dose response
